Source: patent US4214001A, “1-(4-Acylamino-phenyl)-2-amino-ethanols and salts thereof” (Boehringer Ingelheim GmbH, priority 1977, dated 1980)
Where two headings read alike, the source gives them in different places.

Key:
[1] = tested on: bronchospasms induced by acetylcholine; assay: Bronchospasmolytic activity (method of Konzett et al.), acetylcholine-induced bronchospasm; assay type: in vivo; conditions: anesthetized guinea pigs; for ED50: Cavia porcellus, dose which produces a 50% reduction of the bronchospasm, acetylcholine 20 mgm/kg i.v.
Experimental: The compounds were tested on adult guinea pigs of both sexes by the standard pharmacological test method of Konzett et al., Naunyn-Schmiedeberg's Arch. Exp. Path. Pharmakol. 195, 71-74 (1940). The test animals were anesthetized with 1.5 gm/kg urethane i.p. The bronchospasms were induced by injection of 20 mgm/kg of acetylcholine i.v. The test compound was administered intravenously or intraduodenally. From the average values of maximum decrease in bronchoconstriction obtained at various dosage levels, an ED50 i.e. the dose which produces a 50% reduction of the bronchospasm, with confidence limits according to Fieller, Quart. J. Pharm. Phamacol. 17, 117-123 (1944), was calculated by linear regression analysis according to Linder, Statistische Methoden, 4th Ed., 148-162, published by Birkhauser, Basel, Switzerland (1964).

[2] = Acute toxicity, intravenous, LD50; conditions: mouse, in vivo, i.v., mice, animals which died within 14 days
Experimental: The intravenous toxicity was determined on laboratory mice of both sexes having an average body weight of 20 gm. From the number of animals which died within 14 days at various dosage levels, the median lethal dose (LD50) was calculated by the method of Litchfield and Wilcoxon, supra.

[3] = tested on: asthma attack induced by acetylcholine aerosol; assay: Antiasthmatic activity (method of Kallos et al.), acetylcholine aerosol; assay type: in vivo, guinea pigs
Experimental: The standard test method of Kallos et al., Acta med. scand. 91, 292 (1937) was used. The test compound was orally administered to adult guinea pigs which were then exposed to an acetylcholine aerosol steam produced with an aerosol nozzle at 1.5 atmospheres gauge from a 0.4% solution of acetylcholine in an aqueous 0.9% sodium chloride solution. A more than three-fold prolongation of the time until onset of the asthma attack in comparision to untreated controls was evaluated as absolute protection. From the number of animals which were protected at various dosages, an ED50, i.e. the dose which gives absolute protection in 50% of the animals, was calculated by the method of Litchfield and Wilcoxon, J. Pahrmacol. Exper. Ther. 96, 99 (1949).

[4] = iv, read-out: ED50 after i.v. administration
[5] = i.d. (intraduodenal), read-out: ED50 after i.d. administration

In the case of `CCOC(=O)Nc1c(F)cc(C(O)CNC(C)(C)C)cc1Cl.Cl` (stereo not drawn) [A, 1-(4'-ethoxycarbonylamino-3'-chloro-5'-fluoro-phenyl)-2-tert.-butylamino-ethanol hydrochloride], the ED50 [1, 4] is reported as 0.0307 mg/kg, the ED50 [1, 5] is reported as 0.0323 mg/kg and the “t/2 after i.v. administration” value [1] is reported as 60 min. It also gave an LD50 at 336 h [2] of 70.2 mg/kg.

In the case of `CCOC(=O)Nc1c(F)cc(C(O)CNC(C)(C)C)cc1C#N.Cl` (stereo not drawn) [B, 1-(4'-ethoxycarbonylamino-3'-cyano-5'-fluoro-phenyl)-2-tert.-butylamino-ethanol hydrochloride], the ED50 ([3]; Cavia porcellus, po, dose which gives absolute protection in 50% of the animals (more than three-fold prolongation of time until onset of asthma attack), acetylcholine aerosol 0.4%) is reported as 0.0143 mg/kg, the t/2 ([3]; p.o., guinea pigs) is reported as 150 min and the “Max. effect after min.” value ([3]; p.o., guinea pigs, time of maximum effect) is reported as 15 to 30 min. For the same compound, the ED50 [1, 4] was 0.0056 mg/kg, the ED50 [1, 5] was 0.007 mg/kg and the “t/2 after i.v. administration” value [1] was 70 min. For the same compound, the LD50 at 336 h [2] was 97.5 mg/kg.

For `CCOC(=O)Nc1ccc(C(O)CNC(C)(C)C)cc1C#N.Cl` (stereo not drawn) [C, 1-(4'-ethoxycarbonylamino-3'-cyano-phenyl)-2-tert. butylamino-ethanol hydrochloride], the ED50 [1, 4] was 0.0235 mg/kg, the ED50 [1, 5] was 0.0087 mg/kg and the “t/2 after i.v. administration” value [1] was > 50 min. It also gave an LD50 at 336 h [2] of 67.2 mg/kg.

In the case of `CCOC(=O)Nc1ccc(C(O)CNC(C)C)cc1C#N.Cl` (stereo not drawn) [D, 1-(4'-ethoxycarbonylamino-3'-cyano-phenyl)-2-isopropylamino-ethanol hydrochloride], the ED50 [1, 4] is reported as 0.064 mg/kg, the “t/2 after i.v. administration” value [1] is reported as > 50 min and the LD50 at 336 h [2] is reported as 61.9 mg/kg.
